{"source": "ChEMBL document CHEMBL5634184", "about": "“Direct Inhibition of BK Channels by Cannabidiol, One of the Principal Therapeutic Cannabinoids Derived from Cannabis sativa” (J Nat Prod, 2024)", "key": {"[1]": {"biological_target": "T1, Calcium-activated potassium channel subunit alpha-1 (Homo sapiens, UniProt Q12791)", "T1 sequence (Q12791 whole entry)": "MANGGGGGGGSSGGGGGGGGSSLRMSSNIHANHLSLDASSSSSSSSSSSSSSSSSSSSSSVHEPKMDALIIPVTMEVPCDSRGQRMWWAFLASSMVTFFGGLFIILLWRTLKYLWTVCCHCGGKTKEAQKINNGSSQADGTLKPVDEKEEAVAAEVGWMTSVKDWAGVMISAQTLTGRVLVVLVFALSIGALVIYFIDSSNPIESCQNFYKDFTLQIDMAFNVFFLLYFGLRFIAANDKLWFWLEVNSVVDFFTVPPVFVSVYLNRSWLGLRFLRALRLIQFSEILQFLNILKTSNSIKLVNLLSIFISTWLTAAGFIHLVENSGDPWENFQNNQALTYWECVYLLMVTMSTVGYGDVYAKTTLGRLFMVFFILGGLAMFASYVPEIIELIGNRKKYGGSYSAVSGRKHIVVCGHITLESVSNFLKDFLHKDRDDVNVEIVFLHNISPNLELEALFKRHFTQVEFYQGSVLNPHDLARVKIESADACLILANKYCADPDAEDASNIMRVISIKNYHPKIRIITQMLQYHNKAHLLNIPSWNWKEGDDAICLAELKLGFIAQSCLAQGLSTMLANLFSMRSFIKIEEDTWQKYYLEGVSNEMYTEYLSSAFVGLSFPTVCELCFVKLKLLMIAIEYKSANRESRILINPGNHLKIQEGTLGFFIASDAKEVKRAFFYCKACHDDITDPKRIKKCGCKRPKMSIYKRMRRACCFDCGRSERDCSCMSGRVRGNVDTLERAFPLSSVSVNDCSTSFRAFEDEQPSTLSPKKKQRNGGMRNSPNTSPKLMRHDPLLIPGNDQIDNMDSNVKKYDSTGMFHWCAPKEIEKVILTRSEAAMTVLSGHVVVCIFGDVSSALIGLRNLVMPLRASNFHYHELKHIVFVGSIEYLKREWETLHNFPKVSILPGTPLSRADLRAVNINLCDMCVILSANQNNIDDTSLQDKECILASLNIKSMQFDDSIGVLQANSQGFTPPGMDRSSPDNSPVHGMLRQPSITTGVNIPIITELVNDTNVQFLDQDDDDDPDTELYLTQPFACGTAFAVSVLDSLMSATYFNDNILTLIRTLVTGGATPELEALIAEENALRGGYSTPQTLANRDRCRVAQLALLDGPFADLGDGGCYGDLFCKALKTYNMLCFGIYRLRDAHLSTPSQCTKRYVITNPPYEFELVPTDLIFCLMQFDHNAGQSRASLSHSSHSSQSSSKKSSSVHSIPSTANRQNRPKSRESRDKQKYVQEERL", "assay": "Inhibition of human KCNMA1 expressed in HEK293 cells assessed increase in time constant value of voltage activation at 1 uM by inside-out configuration based patch clamp method", "type": "cell-based"}, "[2]": {"biological_target": "T1, Calcium-activated potassium channel subunit alpha-1", "assay": "Inhibition of human KCNMA1 expressed in HEK293 cells assessed as shift to depolarized potential at 1 uM by whole cell configuration based patch clamp method"}, "[3]": {"biological_target": "T1, Calcium-activated potassium channel subunit alpha-1", "assay": "Inhibition of human KCNMA1 expressed in HEK293 cells assessed as reduction in amplitude current at 10 uM by inside-out configuration based patch clamp method relative to control", "type": "cell-based"}, "[4]": {"biological_target": "T1, Calcium-activated potassium channel subunit alpha-1", "assay": "Inhibition of human KCNMA1 expressed in HEK293 cells assessed as reduction in unitary conductance at 3 uM (reference value: 242+/-10 pS)", "type": "cell-based"}, "[5]": {"biological_target": "T1, Calcium-activated potassium channel subunit alpha-1", "assay": "Inhibition of human KCNMA1 expressed in HEK293 cells assessed as reduction in open probability at 3 uM at -40 mV relative to control", "type": "cell-based"}, "[6]": {"biological_target": "T1, Calcium-activated potassium channel subunit alpha-1", "assay": "Reversible inhibition of human KCNMA1 expressed in HEK293 cells at 1 uM by whole cell configuration based patch clamp method"}, "[7]": {"biological_target": "T1, Calcium-activated potassium channel subunit alpha-1", "assay": "Inhibition of human KCNMA1 expressed in HEK293 cells assessed as reduction in maximal conductance at 1 uM by whole cell configuration based patch clamp method"}, "[8]": {"biological_target": "T1, Calcium-activated potassium channel subunit alpha-1", "assay": "Inhibition of human KCNMA1 expressed in HEK293 cells assessed as shift in activation curve to depolarized voltage (deltaV1/2) at 0.3 to 10 uM by inside-out configuration based patch clamp method", "type": "cell-based", "conditions": "dose 0.3-10 µM"}, "[9]": {"biological_target": "T1, Calcium-activated potassium channel subunit alpha-1", "assay": "Inhibition of human KCNMA1 expressed in HEK293 cells assessed as reduction in 100+ mV pulse elicited current by inside-out configuration based patch clamp method", "type": "cell-based"}, "[10]": {"biological_target": "T1, Calcium-activated potassium channel subunit alpha-1", "assay": "Inhibition of human KCNMA1 expressed in HEK293 cells assessed as decrease in maximal conductance at 0.3 to 10 uM by inside-out configuration based patch clamp method", "type": "cell-based", "conditions": "dose 0.3-10 µM"}, "[11]": {"biological_target": "T1, Calcium-activated potassium channel subunit alpha-1", "assay": "Inhibition of human KCNMA1 expressed in HEK293 cells assessed as reduction in amplitude current at 1 uM by inside-out configuration based patch clamp method", "type": "cell-based"}, "[12]": {"biological_target": "T1, Calcium-activated potassium channel subunit alpha-1", "assay": "Inhibition of human KCNMA1 expressed in HEK293 cells assessed as decrease in open probability at 3 uM under single channel current", "type": "cell-based"}, "[13]": {"biological_target": "T1, Calcium-activated potassium channel subunit alpha-1", "assay": "Inhibition of human KCNMA1 expressed in HEK293 cells assessed as reduction in voltage activation kinetics at 1 uM by whole cell configuration based patch clamp method"}, "[14]": {"biological_target": "T1, Calcium-activated potassium channel subunit alpha-1", "assay": "Inhibition of human KCNMA1 expressed in HEK293 cells assessed as increase in mean closed times at 3 uM at -40 mV (reference value: 33=/-12 ms)", "type": "cell-based"}, "[15]": {"biological_target": "T1, Calcium-activated potassium channel subunit alpha-1", "assay": "Inhibition of human KCNMA1 expressed in HEK293 cells assessed effect on deactivation kinetics at 1 uM by inside-out configuration based patch clamp method", "type": "cell-based"}}, "note": "Activity calls are given as the source filed them. No cut-off for these calls is given here.", "data": [{"smiles": "C=C(C)[C@@H]1CCC(C)=C[C@H]1c1c(O)cc(CCCCC)cc1O", "note": "[CANNABIDIOL]", "values": [{"measurement": "inhibition", "setting": "[1]", "result": "Active"}, {"measurement": "inhibition", "setting": "[2]", "result": "Active"}, {"measurement": "inhibition", "setting": "[3]", "result": 100, "unit": "%"}, {"measurement": "Time", "setting": "[4]", "result": 182, "unit": "pS"}, {"measurement": "inhibition", "setting": "[5]", "result": 87.4, "unit": "%"}, {"measurement": "inhibition", "setting": "[6]", "result": "Active"}, {"measurement": "inhibition", "setting": "[7]", "result": "Active"}, {"measurement": "inhibition", "setting": "[8]", "result": "Active"}, {"measurement": "IC50", "setting": "[9]", "result": 280, "unit": "nM"}, {"measurement": "inhibition", "setting": "[10]", "result": "Active"}, {"measurement": "inhibition", "setting": "[11]", "result": "Active"}, {"measurement": "inhibition", "setting": "[12]", "result": "Active"}, {"measurement": "inhibition", "setting": "[13]", "result": "Active"}, {"measurement": "Time", "setting": "[14]", "result": "9.11e-05", "unit": "h"}, {"measurement": "inhibition", "setting": "[15]", "result": "inactive"}]}]}
